Results: PubChem BioAssay (NCI)
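The compound was tested at five concentrations on cells cultured in 96-well plates, with a 48-hour exposure period. Definition used: TGI = concentration required for complete inhibition of growth.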 Where a SMILES comes first, the peptide text is derived from it. [ ]: non-standard residue; d: D form. The star is where a group is joined. Bn2Val = CC(C)[C@@H](C(=O)*)N(Cc1ccccc1)Cc1ccccc1; NH(3,4-diMeO-benzyl) = COc1ccc(CN*)cc1OC; NMeV = CN[C@H](C(=O)O)C(C)C

What was measured:
Test in all cases: NCI anticancer screen, dose series, 48 h
A549 NSCLC = system: A549 NSCLC
COLO 205 colon = system: COLO 205 colon
EKVX NSCLC = system: EKVX NSCLC
HCC-2998 colon = system: HCC-2998 colon
IGROV1 ovarian = system: IGROV1 ovarian
KM12 colon = system: KM12 colon
MDA-MB-231 breast = system: MDA-MB-231 breast
MDA-N = system: MDA-N
NCI/ADR-RES ovarian = system: NCI/ADR-RES ovarian
OVCAR-5 ovarian = system: OVCAR-5 ovarian
OVCAR-8 ovarian = system: OVCAR-8 ovarian
SF-539 CNS = system: SF-539 CNS
SNB-19 CNS = system: SNB-19 CNS
SR leukemia = system: SR leukemia
SW-620 colon = system: SW-620 colon
UACC-257 melanoma = system: UACC-257 melanoma
UACC-62 melanoma = system: UACC-62 melanoma
RXF 393 renal = system: RXF 393 renal

Row | Compound | TGI (A549 NSCLC) [µM] | TGI (COLO 205 colon) [µM] | TGI (EKVX NSCLC) [µM] | TGI (HCC-2998 colon) [µM] | TGI (IGROV1 ovarian) [µM] | TGI (KM12 colon) [µM] | TGI (MDA-MB-231 breast) [µM] | TGI (MDA-N) [µM] | TGI (NCI/ADR-RES ovarian) [µM] | TGI (OVCAR-5 ovarian) [µM] | TGI (OVCAR-8 ovarian) [µM] | TGI (SF-539 CNS) [µM] | TGI (SNB-19 CNS) [µM] | TGI (SR leukemia) [µM] | TGI (SW-620 colon) [µM] | TGI (UACC-257 melanoma) [µM] | TGI (UACC-62 melanoma) [µM] | TGI (RXF 393 renal) [µM]
1 | COc1ccc(-n2sc3ncc([N+](=O)[O-])cc3c2=O)cc1 | > 100 | > 100 | > 100 | > 100 | > 100 | > 100 | > 100 | > 100 | > 100 | > 100 | > 100 | > 100 | > 100 | > 100 | > 100 | > 100 | > 100 | –
2 | COc1ccc(CNC(=O)[C@@H]2CCCN2C(=O)[C@@H]2CCCN2C(=O)[C@H](C(C)C)N(C)C(=O)[C@@H](NC(=O)[C@H](C(C)C)N(Cc2ccccc2)Cc2ccccc2)C(C)C)cc1OC (Bn2Val-V[NMeV]PP-{NH(3,4-diMeO-benzyl)}) | 38.4 | 38.7 | 26.7 | – | 13.4 | 51.5 | 42.3 | 30.5 | 48.2 | 34 | 30.3 | 34 | 30.7 | > 100 | > 60.8 | 42.9 | 29.7 | 26.7
3 | O=C(OCc1ccccc1)N1CCCc2c(n(S(=O)(=O)c3ccccc3)c3ccccc23)C1 | > 100 | > 100 | > 100 | – | > 100 | > 100 | > 100 | > 100 | > 100 | > 100 | > 100 | > 100 | > 100 | > 100 | > 100 | > 100 | > 100 | > 100
4 | COc1cccc(C2c3cc4c(cc3OC(N3CCCCC3)C2C)OCO4)c1OC (configuration not stated) | 22.3 | 29 | 54.5 | 33 | 61.7 | 23.8 | 41 | 47 | – | 79.4 | > 100 | 33.9 | > 100 | 4.02 | 68.9 | 36.2 | 33.6 | 28.2
5 | CN(C)Cc1cc(/C=C/C(=O)c2ccc(Cl)c(Cl)c2)cc(CN(C)C)c1O | 36.8 | 32.5 | 30.1 | 19.3 | 25.3 | 26.3 | 21.8 | 29.8 | 50.6 | 28.3 | 32.8 | 20.3 | 32.5 | – | 30.1 | 25.8 | 27.4 | 28.4
6 | O=S(=O)(O)C(Cc1nc2ccccc2[nH]1)S(=O)(=O)OCCC1S(=O)(=O)OCCOS1(=O)=O (configuration not stated) | > 100 | > 100 | > 100 | > 100 | > 100 | > 100 | > 100 | > 100 | > 100 | > 100 | > 100 | > 100 | > 100 | – | > 100 | > 100 | > 100 | > 100
